According to US20250177478A1, “G ALPHA Q/11 INHIBITORS FOR USE AS AN ANALGESIC” (University of Florida Research Foundation, Incorporated, priority 2022, published 2025):
Positions of bridges follow the written chain, without caps; N, C: chain ends. Non-standard residues stand in square brackets, D forms with d. Residues, ends and D or L forms follow the SMILES beside them. Leu(3R-O(AcLeu(3R-OH))) = CC(=O)N[C@H](C(=O)O[C@H](C(C)C)[C@H](N)C(=O)O)[C@H](O)C(C)C; NMeT = CN[C@H](C(=O)O)[C@@H](C)O; dPhLac = O=C(O)[C@H](O)Cc1ccccc1; NMeA = CN[C@@H](C)C(=O)O; NMeDha = C=C(NC)C(=O)O

Legend:
C57BL/6 mice [1] = tested on: C57BL/6 mice
Description: (§1) A. Experimental animals. C57BL/6 mice (6-8 weeks old) of both sexes were used. Mice were housed in groups on a 12-h light-dark cycle (6:00 am light cycle; 6:00 pm dark cycle) with food (Teklad Global 16% protein rodent diets; Envigo Inc., WI, USA) and water available ad libitum. Animal groups were compiled to ensure minimization of factors (e.g., weight, sex, and health). Mice were within 20-28 g in weight at start of all studies. All tested groups contained a control group and consisted of male and female mice. Males and females were tested on the same day but at different times so that they were not in the room at the same time. All the experiments were tested during the light cycle between 8:00 am and 3:00 pm to avoid any long-term disruption of sleep cycles. Mice were transferred to the behavioural testing room at least 45 min before the first test to acclimatize. Following behavioural evaluation, animals were killed by CO2 inhalation, followed by cervical dislocation and postmortem decapitation.
(§2) B. Drug treatments. […] The dose of YM-254890 for subcutaneous injection was taken from previous published studies. The dose of morphine selected for subcutaneous administration (2.5, 5 and 10 mg kg-1) is commonly used in mouse analgesia. For the combined administration of morphine and YM-254890 on thermal anti-nociception, YM-254890 was administered 10 min before the morphine. The latency of response was measured before injection of drugs (baseline latency response) and at different time intervals (post-treatment latency response) after drugs injection.
C. Intrathecal injections. Intrathecal (i.t.) administration was performed following the method described previously (Hylden J L et al. “Intrathecal morphine in mice: a new technique.” Eur J Pharmacol (1980) 67:313-316; Li D et al. “Direct Intrathecal Injection of Recombinant Adeno-associated Viruses in Adult Mice.” J Vis Exp (2019)) with slight modifications. All intrathecal injections were performed using a 25 μL Hamilton syringe with a 30-gauge needle. The injection volume was 5 μL for each mouse. […] Each solution was injected without injection cannulae. Intrathecal injections were made into the L5-L6 intervertebral space of unanesthetized mice. The flick of the tail was considered indicative of a successful i.t. administration.

C57BL/6 mice [2] = test: Hot plate test (52.5° C), anti-nociception; format: in vivo, mouse
Description: as §1, §2
D. Intracerebral injections. Intracerebroventricular administration was performed following the method described previously with slight modifications (Haley T J et al. “Pharmacological effects produced by intracerebral injection of drugs in the conscious mouse.” British Journal of Pharmacology and Chemotherapy, (1957) 12:12-15; Narita M et al. “Reduced expression of a novel μ-opioid receptor (MOR) subtype MOR-1B in CXBK mice: Implications of MOR-1B in the expression of MOR-mediated responses.” The European Journal of Neuroscience (2003) 18:3193-3198)). On the day of the drug/vehicle injection or on the day of behavioural test, the mouse was secured at the nape of the neck and head by the investigator's thumb and forefinger, and head of the mouse was held against a V-shaped holder. A 27-gauge hypodermic needle attached with 25 μL. Hamilton microsyringe was inserted perpendicularly into the unilateral injection site into the hole with the depth of 3.5 mm. The injection volume was 4 μL.
(1) Hot Plate test. Animals were tested for the assessment of anti-nociception and analgesic effects of morphine using a hotplate set to 52.5° C. The assay was performed as described previously (Bannon A W et al. “Models of nociception: Hotplate, tail-flick, and formalin tests in rodents.” In Current Protocols in Neuroscience, Chapter 8: Unit 8.9. Wiley (2007); Wang D et al. “Genetic behavioral screen identifies an orphan anti-opioid system.” Science (2019) 365:1267-1273). Mice were placed in a Plexiglas chamber (16″ tall and 8″ in diameter) on a ceramic plate heated to 52.5° C. and the timer started.

[3] = YM-254890 s.c. with morphine 5 mg/kg s.c., all animals

**Q.** `C=C1C(=O)N[C@@H](C)C(=O)N(C)[C@@H](C)C(=O)N[C@@H]([C@H](OC(=O)[C@@H](NC(C)=O)[C@H](O)C(C)C)C(C)C)C(=O)N(C)[C@@H]([C@@H](C)OC)C(=O)O[C@H](C)[C@H](NC(C)=O)C(=O)O[C@H](Cc2ccccc2)C(=O)N1C` [YM-254890] (Ac-T[dPhLac][NMeDha]A[NMeA][Leu(3R-O(AcLeu(3R-OH)))][NMeT](Me); ester 1-C) was tested. Which “effect on morphine locomotor-sensitizing effect, open-field test” value (C57BL/6 mice [1]; YM-254890 0.5 mg/kg s.c. 10 min before morphine 5 mg/kg s.c., 120 min) did it give?
**A.** Its value is “completely suppressed these effects”.

**Q.** And the “locomotion in open-field test” value (C57BL/6 mice [1]; YM-254890 0.5 mg/kg s.c. with morphine 5 mg/kg s.c., comparable with YM-254890 alone)?
**A.** Its value is “substantial decrease in locomotion”.

**Q.** What about the “motor activity in open-field test after intrathecal delivery” value (C57BL/6 mice [1]; YM-254890 intrathecal 3.0 nmol, alone or in combination with morphine 2.5 mg/kg s.c., 120 min) of the same molecule?
**A.** Its value is “no significant changes in motor activity”.

**Q.** And the “effect on opioid-induced analgesia, hotplate test” value (C57BL/6 mice [2]; YM-254890 0.25 mg·kg−1 s.c. (subthreshold) 10 min before morphine 5 mg/kg s.c.)?
**A.** The value was “significantly potentiated anti-nociceptive effects”.

**Q.** And the “effect on opioid-induced analgesia, hotplate test” value (C57BL/6 mice [2]; YM-254890 0.5 mg·kg−1 s.c. 10 min before morphine 5 mg/kg s.c.)?
**A.** Its value is “further enhancement of opioid analgesia”.

**Q.** And the “effect on onset timing and duration of opioid analgesia, hotplate test” value (C57BL/6 mice [2]; YM-254890 0.25 or 0.5 mg·kg−1 s.c. with morphine 5 mg/kg s.c.)?
**A.** The value was “no effect on either the onset timing or duration of the opioid analgesia”.

**Q.** And the “time of maximal analgesic response after injection, hotplate test” value (C57BL/6 mice [2]; YM-254890 alone, subcutaneous, 0.5 and 1.0 mg·kg−1)?
**A.** Its value is 30 min.

**Q.** What about the “paw withdrawal latencies in hotplate test” value (C57BL/6 mice [2]; YM-254890 alone, subcutaneous, higher doses 0.5 and 1.0 mg·kg−1) of the same molecule?
**A.** The value was “produced increases in paw withdrawal latencies”.

**Q.** And the “paw withdrawal latencies in hotplate test” value (C57BL/6 mice [2]; YM-254890 alone, subcutaneous, lower doses 0.1 and 0.3 mg·kg−1)?
**A.** Its value is “No significant effect”.

**Q.** And the “analgesia in hotplate test after delivery directly into the brain” value (C57BL/6 mice [2]; YM-254890 i.c.v. 0.4, 1.2, 4 nmol)?
**A.** The value was “dose-dependent increase in both the extent and duration of analgesia”.

**Q.** What about the “time to reach maximal latencies, hotplate test” value (C57BL/6 mice [2]; [3]) of the same molecule?
**A.** The value was “about 30 min”.

**Q.** What about the “time to recover to baseline nociceptive thresholds, hotplate test” value (C57BL/6 mice [2]; [3]) of the same molecule?
**A.** The value was “about 3 h”.
